Test results as given in patent US10266544B2, “Aryl substituted aminomethyl spectinomycin analogs as antibacterial agents” (ST. JUDE CHILDREN'S RESEARCH HOSPITAL, INC., priority 2013, dated 2019).
Counter-ions that a name gives are not always drawn. Like-named read-outs stand apart in the source and are kept apart here.

Experiments:
Format in all cases: cell-based
[1] = system: Bacillus anthracis, Sterne 34F2; test: microbe, parasite or virus in culture; settings: STERNE34F2, read-out: MIC B.a.
[2] = system: Bacillus subtilis (ATCC 23857); test: MIC determination, microbroth dilution; settings: ATCC23857; Bacillus subtilis (ATCC 23857); read-out: MIC B.s.
[3] = system: Enterococcus faecalis (ATCC 33186); test: MIC determination, microbroth dilution
[4] = system: Staphylococcus aureus (ATCC 29213); test: MIC determination, microbroth dilution; settings: ATCC29213; Staphylococcus aureus (ATCC 29213); read-out: MIC S.a.
[5] = system: MRSA, Staphylococcus aureus (NRS70); test: MIC determination, microbroth dilution; settings: Staphylococcus aureus (NRS70); read-out: MIC MRSA
[6] = system: Streptococcus pneumoniae (R6); test: MIC determination, microbroth dilution; settings: read-out: MIC S. pn.
[7] = system: Streptococcus pyogenes (ATCC 700294); test: MIC determination, microbroth dilution
[8] = system: acinetobacter baumannii (ATCC 19606); test: MIC determination, microbroth dilution; settings: ATCC19606
[9] = system: Burkholderia cepacia (ATCC 25416); test: MIC determination, microbroth dilution; settings: Burkholderia cepacia
[10] = system: Escherichia coli (ATCC 700926); test: MIC determination, microbroth dilution; settings: ATCC700926; Escherichia coli (ATCC 700926); read-out: MIC E.c.
E. coli K12 ΔtolC = test: microbe, parasite or virus in culture; settings: Escherichia coli, read-out: MIC E.c. Δtolc
[11] = system: Klebsiella pneumoniae (ATCC 33495); test: MIC determination, microbroth dilution; settings: ATCC33495
[12] = system: Pseudomonas aeruginosa (PA01); test: MIC determination, microbroth dilution
[13] = system: Proteus mirabilis (ATCC 25933); test: MIC determination, microbroth dilution; settings: ATCC25933
[14] = system: Proteus vulgaris (ATCC 33420); test: MIC determination, microbroth dilution; settings: ATCC33420
[15] = system: Stenotrophomonas maltophilia (ATCC 13637); test: MIC determination, microbroth dilution
[16] = system: Haemophilus influenza (ATCC 49247); test: microbe, parasite or virus in culture; settings: ATCC49247; Haemophilus influenza; 4 μg per disc; range of at least two experiments; read-out: Zone of inhibition H.i.
[17] = system: Legionella pneumophila (ATCC 33153); test: microbe, parasite or virus in culture; settings: ATCC33153, 72 h, read-out: Zone of inhibition L.p.
[18] = system: Neisseria meningitides (ATCC 13077); test: Disc diffusion assay; settings: ATCC13077, 4 μg per disc, read-out: Zone of inhibition N.m.
[19] = system: Neisseria gonorrhoeae (ATCC 49226); test: Disc diffusion assay; settings: ATCC49226, 4 μg per disc, read-out: Zone of inhibition N.g.
[20] = system: Neisseria gonorrhoeae (ATCC 49226); test: Agar MIC determination (Alamar Blue)
Bacillus anthracis = test: microbe, parasite or virus in culture; settings: read-out: MIC B.a.
Yersinia pestis = test: microbe, parasite or virus in culture; settings: read-out: MIC Y.p.
[21] = system: M. tuberculosis clinical isolates; test: microbe, parasite or virus in culture; settings: Mycobacterium tuberculosis, H37RV, read-out: MIC H37Rv
Listeria monocytogenes = test: MIC determination (Table 6)
Moraxella catarrhalis = test: MIC determination (Table 6)
[22] = ATCC33186, Enterococcus faecalis (ATCC 33186), read-out: MIC E.f.
[23] = ATCC700294, Streptococcus pyogenes (ATCC 700294), read-out: MIC S. py.
[24] = ATCC25416, read-out: MIC B.c., Burkholderia cepacia (ATCC 25416)
[25] = ATCC25416, read-out: MIC B.c., Burkholderia cepacia, Table 6
[26] = ATCC13637, Stenotrophomonas maltophilia (ATCC 13637), read-out: MIC S.m.
[27] = ATCC49226, agar MIC, read-out: MIC N.g.
[28] = Stenotrophomonas maltophilia, ATCC13637, read-out: MIC S.m.
[29] = Enterococcus faecalis, ATCC33186, read-out: MIC E.f.

Compound	MIC [1] [mg/L]	MIC [2] [mg/L]	MIC [4] [mg/L]	MIC [5] [mg/L]	MIC [8] [mg/L]	MIC [9, 24] [mg/L]	MIC [9, 25] [mg/L]	MIC [10] [mg/L]	MIC (E. coli K12 ΔtolC) [mg/L]	MIC [11] [mg/L]	MIC [12] [mg/L]	MIC [13] [mg/L]	MIC [14] [mg/L]	zone of inhibition at 4 µg/disc [16] [mm]	zone of inhibition at 4 µg/disc [17] [mm]	zone of inhibition at 4 µg/disc [18] [mm]	zone of inhibition at 4 µg/disc [19] [mm]	MIC (Bacillus anthracis) [mg/L]	MIC [21] [mg/L]	MIC (Listeria monocytogenes) [mg/L]	also measured
CN[C@@H]1[C@H](O)[C@H](NC)[C@H]2O[C@]3(O)[C@H](O[C@@H]2[C@H]1O)O[C@H](C)C[C@@]3(O)CNCc1ccccc1F [compound 14, 3′-(R)-3′-[(2-fluoro)benzylaminomethyl)]dihydrospectinomycin Trihydrochloride]	50 to 100	6.3	200	≥ 200	> 200	100 to 200	100 to 200	50	25	≥ 200	≥ 200	> 200	100	11 to 12	36	19	18	50 to 100	50	25	MIC [3, 22]: 50 mg/L; MIC ([6]; Streptococcus pneumoniae (R6)): 3.1 to 6.3 mg/L; MIC [7, 23]: 3.1 mg/L; MIC [15, 26]: 12.5 to 25 mg/L; MIC [20, 27]: 12.5 to 25 mg/L; MIC (Yersinia pestis): > 200 mg/L; MIC (Moraxella catarrhalis): 1.6 mg/L
CN[C@@H]1[C@H](O)[C@H](NC)[C@H]2O[C@]3(O)[C@H](O[C@@H]2[C@H]1O)O[C@H](C)C[C@@]3(O)CNCc1ccccn1 [compound 16, 3′-(R)-3′-(2-pyridinylmethylaminomethyl)dihydrospectinomycin Tetrahydrobromide]	50	50	100 to 200	> 200	> 200	> 200	> 200	100 to 200	50	200	> 200	> 200	> 200	7	34	13	6	50	12.5	25	MIC [3, 22]: 100 mg/L; MIC ([6]; Streptococcus pneumoniae): 12.5 mg/L; MIC ([7]; Streptococcus pyogenes, ATCC700294, read-out: MIC S. py.): 12.5 to 25 mg/L; MIC [15, 28]: 12.5 to 25 mg/L; MIC [20, 27]: ≥ 200 mg/L; MIC (Yersinia pestis): 100 mg/L; MIC (Moraxella catarrhalis): 12.5 mg/L
CN[C@@H]1[C@H](O)[C@H](NC)[C@H]2O[C@]3(O)[C@H](O[C@@H]2[C@H]1O)O[C@H](C)C[C@@]3(O)CNCc1cccnc1 [compound 7, 3′-(R)-3′-(3-pyridinylmethylaminomethyl)dihydrospectinomycin Tetrahydrobromide]	100	100	≥ 200	> 200	≥ 200	≥ 200	≥ 200	50	12.5 to 25	> 200	> 200	> 200	> 200	7	42	9	7	100	50 to 100	25	MIC [3, 22]: 200 mg/L; MIC ([6]; Streptococcus pneumoniae): 12.5 to 25 mg/L; MIC [7, 23]: 25 mg/L; MIC [15, 26]: 100 mg/L; MIC [20, 27]: 200 mg/L; MIC (Moraxella catarrhalis): 6.3 mg/L
CN[C@@H]1[C@H](O)[C@H](NC)[C@H]2O[C@]3(O)[C@H](O[C@@H]2[C@H]1O)O[C@H](C)C[C@@]3(O)CNCc1ccncc1 [compound 9, 3′-(R)-3′-(4-pyridinylmethylaminomethyl)dihydrospectinomycin Tetrahydrobromide]	100 to 200	200	≥ 200	≥ 200	≥ 200	> 200	> 200	50	12.5	> 200	≥ 200	> 200	> 200	8	28	6	6	100 to 200	200	100	MIC [3, 22]: > 200 mg/L; MIC ([6]; Streptococcus pneumoniae (R6)): 25 to 50 mg/L; MIC [7, 23]: 25 to 50 mg/L; MIC [15, 26]: 200 mg/L; MIC [20, 27]: ≥ 200 mg/L; MIC (Moraxella catarrhalis): 12.5 mg/L
CN[C@@H]1[C@H](O)[C@H](NC)[C@H]2O[C@]3(O)[C@H](O[C@@H]2[C@H]1O)O[C@H](C)C[C@@]3(O)CNCc1ccc(Cl)s1 [compound 21, 3′-(A′)-3′-[(5-Chloro)-2-thiophenylmethylaminomethyl)dihydrospectinomycin Trihydrobromide]	50	25 to 50	25 to 50	200	> 200	200	200	50	12.5	> 200	> 200	> 200	≥ 200	13	22	19	20	50	100	6.3	MIC [3, 29]: 12.5 mg/L; MIC ([6]; Streptococcus pneumoniae (R6)): 3.1 mg/L; MIC [7, 23]: 1.6 mg/L; MIC [15, 28]: 12.5 mg/L; MIC ([20]; ATCC49226, read-out: MIC N.g.): 12.5 to 25 mg/L; MIC (Moraxella catarrhalis): 0.8 mg/L
CN[C@@H]1[C@H](O)[C@H](NC)[C@H]2O[C@]3(O)[C@H](O[C@@H]2[C@H]1O)O[C@H](C)C[C@@]3(O)CNCc1cccc(F)c1 [compound 15, 3′-(R)-3′-[(3-fluoro)benzylaminomethyl)]dihydrospectinomycin Trihydrochloride]	12.5 to 25	3.1 to 6.3	100	50	> 200	≥ 200	≥ 200	25 to 50	6.3 to 12.5	> 200	≥ 200	> 200	200	14	41	20	18	12.5 to 25	25	6.3	MIC [3, 29]: 12.5 to 25 mg/L; MIC ([6]; Streptococcus pneumoniae (R6)): 3.1 mg/L; MIC [7, 23]: 3.1 mg/L; MIC [15, 26]: 12.5 mg/L; MIC [20, 27]: 25 to 50 mg/L; MIC (Yersinia pestis): 100 mg/L; MIC (Moraxella catarrhalis): 1.6 mg/L
CN[C@@H]1[C@H](O)[C@H](NC)[C@H]2O[C@]3(O)[C@H](O[C@@H]2[C@H]1O)O[C@H](C)C[C@@]3(O)CNCc1ccc(C(F)(F)F)cc1 [compound 5, 3′-(R)-3′-[(4-trifluoromethyl)benzylaminomethyl)]dihydrospectinomycin Trihydrochloride]	25 to 50	6.3	50	25	≥ 200	100	100	50	6.3 to 12.5	100	200	> 200	> 200	17 to 18	27 to 28	21	18	25 to 50	25	12.5	MIC [3, 22]: 12.5 to 25 mg/L; MIC ([6]; Streptococcus pneumoniae (R6)): 1.6 mg/L; MIC [7, 23]: 1.6 mg/L; MIC [15, 26]: 25 mg/L; MIC [20, 27]: 100 mg/L; MIC (Moraxella catarrhalis): 3.1 to 6.3 mg/L
